pIC50: −log10 of the molar value.

The results in this text go back to ChEMBL document CHEMBL1909046, “DrugMatrix in vitro pharmacology data”.

In assay [1] the target is Prostaglandin G/H synthase 1 (Homo sapiens, UniProt P23219). Nature of the assay: biochemical. The settings on record: platelet. It is filed as tissue-based, Platelet.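 Also: inhibition of COX-1 enzyme activity, with arachidonic acid supplied as substrate; in other assays of this panel Not Active means under 50% inhibition at 10 µM.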
The nature of assay [2]: DRUGMATRIX: Glutamate, NMDA, Phencyclidine radioligand binding (ligand: [3H] TCP). The class given is cell membranes, Rattus norvegicus, Wistar, Cerebral cortex, Membrane. Particulars: Not Active = under 50% inhibition at 10 µM.
Assay [3] addresses T1, Muscarinic acetylcholine receptor M5 (Homo sapiens, UniProt P08912).
T1 sequence (P08912 whole entry): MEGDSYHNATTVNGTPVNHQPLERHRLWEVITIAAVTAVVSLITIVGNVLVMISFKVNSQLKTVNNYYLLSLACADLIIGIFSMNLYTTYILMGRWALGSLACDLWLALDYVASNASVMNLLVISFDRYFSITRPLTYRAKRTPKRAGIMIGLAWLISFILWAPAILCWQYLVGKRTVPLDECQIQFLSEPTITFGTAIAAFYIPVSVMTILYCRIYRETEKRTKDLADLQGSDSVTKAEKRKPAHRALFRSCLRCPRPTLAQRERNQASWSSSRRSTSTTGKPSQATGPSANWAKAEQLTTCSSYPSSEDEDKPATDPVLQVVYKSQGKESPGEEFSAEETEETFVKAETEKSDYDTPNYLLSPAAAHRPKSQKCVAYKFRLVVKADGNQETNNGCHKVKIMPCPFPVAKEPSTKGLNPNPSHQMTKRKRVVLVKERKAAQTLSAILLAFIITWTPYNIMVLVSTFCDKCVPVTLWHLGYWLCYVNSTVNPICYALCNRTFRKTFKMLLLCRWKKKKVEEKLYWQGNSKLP
It is filed as cell membranes, CHO-K1, Membrane. Particulars: cho-k1.

Assay [4] can be described thus: DRUGMATRIX: Calcium Channel Type L, Benzothiazepine radioligand binding (ligand: [3H] Diltiazem). Particulars: Not Active = under 50% inhibition at 10 µM. It is filed as cell membranes, Rattus norvegicus, Wistar, Brain, Membrane.
Assay [5] concerns the target Beta-3 adrenergic receptor (Homo sapiens, UniProt P13945). In words: DRUGMATRIX: Adrenergic beta3 radioligand binding (ligand: [125I] Cyanopindolol). Particulars: hek293; Not Active = under 50% inhibition at 10 µM. It is filed as cell membranes, HEK293, Membrane.
Assay [6] is described as follows: DRUGMATRIX: Platelet-Derived Growth Factor (PDGF) radioligand binding (ligand: [125I] PDGF). The class given is cell-based. The settings on record: nih3t3; Not Active = under 50% inhibition at 10 µM.
Assay [7] deals with T2, C-X-C chemokine receptor type 1 (Homo sapiens, UniProt P25024).
T2 sequence (P25024 whole entry): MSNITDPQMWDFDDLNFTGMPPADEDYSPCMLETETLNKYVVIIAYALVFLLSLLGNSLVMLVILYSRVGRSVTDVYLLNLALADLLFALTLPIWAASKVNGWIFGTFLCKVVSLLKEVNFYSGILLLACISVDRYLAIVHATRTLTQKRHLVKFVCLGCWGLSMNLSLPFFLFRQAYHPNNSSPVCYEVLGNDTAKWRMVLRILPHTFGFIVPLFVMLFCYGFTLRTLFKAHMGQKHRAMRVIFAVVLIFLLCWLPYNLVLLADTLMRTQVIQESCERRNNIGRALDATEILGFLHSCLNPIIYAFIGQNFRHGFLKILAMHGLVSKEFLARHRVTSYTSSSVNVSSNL

Assay [8] has as its target T3, Angiotensin-converting enzyme (Oryctolagus cuniculus, UniProt P12822).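 Also: enzymatic inhibition of angiotensin-converting enzyme measured with FAPGG as the substrate; in other assays of this panel Not Active means under 50% inhibition at 10 µM.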
T3 sequence (P12822 whole entry): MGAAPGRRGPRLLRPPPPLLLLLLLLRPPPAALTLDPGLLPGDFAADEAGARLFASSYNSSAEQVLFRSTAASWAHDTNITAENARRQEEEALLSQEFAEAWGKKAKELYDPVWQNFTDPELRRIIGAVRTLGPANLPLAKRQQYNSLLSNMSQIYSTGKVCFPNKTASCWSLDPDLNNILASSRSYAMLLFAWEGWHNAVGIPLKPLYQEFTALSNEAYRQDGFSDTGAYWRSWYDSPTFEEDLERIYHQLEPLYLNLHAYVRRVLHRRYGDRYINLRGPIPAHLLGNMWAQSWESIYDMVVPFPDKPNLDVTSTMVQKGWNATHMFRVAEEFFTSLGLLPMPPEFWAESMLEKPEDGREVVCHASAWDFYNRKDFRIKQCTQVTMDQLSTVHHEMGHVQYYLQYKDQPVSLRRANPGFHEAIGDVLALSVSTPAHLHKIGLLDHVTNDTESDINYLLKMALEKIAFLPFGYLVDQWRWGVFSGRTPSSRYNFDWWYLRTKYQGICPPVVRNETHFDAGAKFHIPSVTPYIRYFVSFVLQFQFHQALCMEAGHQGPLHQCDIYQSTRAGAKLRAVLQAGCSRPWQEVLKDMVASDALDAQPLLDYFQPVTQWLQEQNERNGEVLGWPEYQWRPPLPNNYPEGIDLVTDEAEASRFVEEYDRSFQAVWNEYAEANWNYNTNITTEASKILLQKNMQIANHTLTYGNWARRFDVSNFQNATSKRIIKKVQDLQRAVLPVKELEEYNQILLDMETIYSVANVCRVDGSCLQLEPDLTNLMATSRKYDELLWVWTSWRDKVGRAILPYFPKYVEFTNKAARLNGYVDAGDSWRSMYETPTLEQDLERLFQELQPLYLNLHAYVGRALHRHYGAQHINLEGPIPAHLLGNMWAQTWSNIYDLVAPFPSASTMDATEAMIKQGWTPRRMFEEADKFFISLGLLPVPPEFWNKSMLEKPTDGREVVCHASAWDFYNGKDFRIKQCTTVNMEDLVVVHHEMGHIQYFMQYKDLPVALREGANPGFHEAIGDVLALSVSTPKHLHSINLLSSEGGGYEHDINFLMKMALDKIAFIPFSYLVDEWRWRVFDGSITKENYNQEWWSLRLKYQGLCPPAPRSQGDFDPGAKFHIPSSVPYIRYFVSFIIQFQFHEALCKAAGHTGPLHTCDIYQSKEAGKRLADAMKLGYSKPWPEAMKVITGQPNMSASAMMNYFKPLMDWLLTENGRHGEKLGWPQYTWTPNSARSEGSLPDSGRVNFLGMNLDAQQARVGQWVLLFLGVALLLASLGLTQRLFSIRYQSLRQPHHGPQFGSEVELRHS
In words: biochemical. It is filed as tissue-based, Lung.

Assay [9] addresses C-C chemokine receptor type 2 (Homo sapiens, UniProt P41597). The class given is cell membranes, CHO-K1, Membrane. Particulars: cho-k1.
The target in another assay is T4, Cathepsin G (Homo sapiens, UniProt P08311).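 Also: inhibition of Cathepsin G enzyme activity, tested on an AMC-conjugated peptide substrate; in other assays of this panel Not Active means under 50% inhibition at 10 µM.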
T4 sequence (P08311 whole entry): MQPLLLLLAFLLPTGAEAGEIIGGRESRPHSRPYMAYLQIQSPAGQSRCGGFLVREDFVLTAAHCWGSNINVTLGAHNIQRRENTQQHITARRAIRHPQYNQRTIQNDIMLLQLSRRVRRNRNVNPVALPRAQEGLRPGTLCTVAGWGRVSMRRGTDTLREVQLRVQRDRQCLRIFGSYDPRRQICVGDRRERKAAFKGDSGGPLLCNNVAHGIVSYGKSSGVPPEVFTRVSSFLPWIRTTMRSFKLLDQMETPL
It is filed as tissue-based. The settings on record: neutrophil.

Sequence of Beta-3 adrenergic receptor (P13945 whole entry): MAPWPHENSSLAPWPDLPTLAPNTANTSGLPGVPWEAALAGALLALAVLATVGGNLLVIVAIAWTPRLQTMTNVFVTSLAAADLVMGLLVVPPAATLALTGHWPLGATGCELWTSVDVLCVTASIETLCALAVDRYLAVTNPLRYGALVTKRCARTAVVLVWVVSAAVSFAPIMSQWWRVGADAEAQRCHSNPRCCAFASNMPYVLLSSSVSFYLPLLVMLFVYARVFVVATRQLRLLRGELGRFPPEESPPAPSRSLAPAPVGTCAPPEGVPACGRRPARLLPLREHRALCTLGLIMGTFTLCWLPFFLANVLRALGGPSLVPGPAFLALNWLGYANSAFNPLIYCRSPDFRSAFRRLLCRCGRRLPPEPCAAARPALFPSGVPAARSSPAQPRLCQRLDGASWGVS
Sequence of C-C chemokine receptor type 2 (P41597 whole entry): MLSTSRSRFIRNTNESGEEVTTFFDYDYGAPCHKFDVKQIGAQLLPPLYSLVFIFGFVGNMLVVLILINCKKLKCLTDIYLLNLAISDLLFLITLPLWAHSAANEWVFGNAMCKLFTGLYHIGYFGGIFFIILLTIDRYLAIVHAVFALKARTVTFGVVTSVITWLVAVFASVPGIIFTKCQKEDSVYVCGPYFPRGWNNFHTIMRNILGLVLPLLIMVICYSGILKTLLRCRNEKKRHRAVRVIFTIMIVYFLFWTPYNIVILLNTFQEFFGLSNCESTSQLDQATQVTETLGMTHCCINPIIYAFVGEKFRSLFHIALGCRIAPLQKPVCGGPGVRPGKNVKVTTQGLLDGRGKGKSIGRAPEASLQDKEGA
Sequence of Prostaglandin G/H synthase 1 (P23219 whole entry): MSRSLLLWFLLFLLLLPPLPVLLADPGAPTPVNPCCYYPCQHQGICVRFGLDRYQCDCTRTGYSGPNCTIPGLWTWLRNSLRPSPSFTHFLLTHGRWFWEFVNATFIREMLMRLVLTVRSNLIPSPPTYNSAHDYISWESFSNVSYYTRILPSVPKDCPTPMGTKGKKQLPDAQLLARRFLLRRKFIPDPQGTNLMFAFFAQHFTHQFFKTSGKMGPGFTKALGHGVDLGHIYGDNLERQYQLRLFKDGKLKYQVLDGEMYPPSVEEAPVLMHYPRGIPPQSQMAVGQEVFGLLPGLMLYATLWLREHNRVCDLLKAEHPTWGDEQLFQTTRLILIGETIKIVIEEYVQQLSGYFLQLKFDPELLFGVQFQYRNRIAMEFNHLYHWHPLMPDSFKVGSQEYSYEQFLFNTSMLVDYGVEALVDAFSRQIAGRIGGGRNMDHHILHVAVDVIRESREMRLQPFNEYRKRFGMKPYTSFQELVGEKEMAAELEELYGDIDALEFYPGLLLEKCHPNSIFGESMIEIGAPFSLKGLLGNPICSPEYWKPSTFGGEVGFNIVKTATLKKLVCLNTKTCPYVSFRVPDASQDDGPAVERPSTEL

Take `CC(CCc1ccccc1)NCC(O)c1ccc(O)c(C(N)=O)c1` (centres undefined) [LABETALOL]: the IC50 result in [1], in assay [2], in assay [3], in assay [4], in [5] and in [6] was “Not Active” throughout. In addition, the IC50 entry (in [7]; in assay [8]; in assay [9]; against Cathepsin G) was “Not Active” each time. In addition, the Ki result in assay [2], in assay [4] and in [6] was “Not Active” throughout.

Turning to `Nc1nnc(-c2cccc(Cl)c2Cl)c(N)n1` [LAMOTRIGINE], the IC50 entry in [1], in [2], in assay [3], in [4], in [5] and in assay [6] was “Not Active” each time. Moreover, the IC50 result (in [7]; in [8]; in assay [9]; on Cathepsin G) was “Not Active” each time. Besides, the Ki entry in assay [2], in assay [4] and in assay [6] was “Not Active” throughout.

As for `CCC[C@@H]1C[C@@H](C(=O)N[C@@H]([C@H]2O[C@H](SC)[C@H](O)[C@@H](O)[C@H]2O)[C@@H](C)O)N(C)C1` [LINCOMYCIN], the IC50 result in assay [1], in assay [2], in [3], in [4], in assay [5] and in assay [6] was “Not Active” in each case. Besides, the IC50 result (in assay [7]; in assay [8]; in assay [9]; at Cathepsin G) was “Not Active” throughout. Besides, the Ki entry in assay [2], in assay [4] and in assay [6] was “Not Active” in each case.

Regarding `NCCCC[C@H](N[C@@H](CCc1ccccc1)C(=O)O)C(=O)N1CCC[C@H]1C(=O)O` [LISINOPRIL ANHYDROUS], the IC50 result in assay [1], in assay [2], in assay [3], in assay [4], in assay [5] and in assay [6] was “Not Active” each time. For the same compound, the IC50 entry (in [7]; in assay [9]; at Cathepsin G) was “Not Active” throughout. The Ki entry in assay [2], in assay [4] and in assay [6] was “Not Active” each time. Moreover, in assay [8] (read-out: IC50), the negative-log IC50 (pIC50) is 8.22.

With `COS(C)(=O)=O` [METHANESULFONIC ACID METHYL ESTER], the IC50 result in [1], in assay [2], in assay [3], in [4], in assay [5] and in assay [6] was “Not Active” in each case. The IC50 result (in assay [7]; in assay [8]; in [9]; at Cathepsin G) was “Not Active” each time. The Ki entry in [2], in [4] and in assay [6] was “Not Active” each time.

Take `COC(=O)c1ccc(O)cc1` [METHYLPARABEN]: the IC50 entry in [1], in [2], in assay [3], in assay [4], in assay [5] and in assay [6] was “Not Active” in each case. In addition, the IC50 result (in assay [7]; in [8]; in assay [9]; against Cathepsin G) was “Not Active” in each case. Further, the Ki result in [2], in assay [4] and in assay [6] was “Not Active” in each case.

For the compound `C[C@](N)(Cc1ccc(O)cc1)C(=O)O` [METYROSINE], the IC50 entry in assay [1], in [2], in assay [3], in assay [4], in [5] and in assay [6] was “Not Active” in each case. Moreover, the IC50 entry (in assay [7]; in [8]; in assay [9]; against Cathepsin G) was “Not Active” throughout. The Ki entry in [2], in assay [4] and in [6] was “Not Active” in each case.

For `Clc1ccc(C(c2ccccc2Cl)C(Cl)Cl)cc1` (centres undefined) [MITOTANE], the IC50 result in assay [1], in assay [2], in assay [3], in assay [4], in assay [5] and in assay [6] was “Not Active” throughout. The IC50 entry (in assay [7]; in assay [8]; in [9]; at Cathepsin G) was “Not Active” in each case. The Ki result in assay [2], in assay [4] and in assay [6] was “Not Active” each time.
